Measurements from patent publication US20210346328A1, “COMPOSITIONS AND METHODS FOR TREATING METABOLIC DISORDERS” (The Johns Hopkins University, priority 2018, published 2021).

Key:
DRG neurons = test: Calcium imaging of isolated DRG neurons; settings: DRG neurons pre-incubated with 10 μM PGE2 for 5 min, relative to vehicle-treated neurons
CREB signaling in VMH = test: CREB phosphorylation in hypothalamus (VMH) after injection; format: in vivo, mouse
Protocol: FIG. 28. (A) Western blot analysis of HTR2C and p-CREB in hypothalamus tissue from 12-week-old mice after PGE2 or vehicle injection at different periods. […] DAPI stains nuclei blue. Scale bar, 50 μm.
The femurs were collected and fixed in 4% paraformaldehyde overnight and decalcified by using 10% EDTA (pH, 7.4) (Amresco, 0105) for 21 days. The samples were then dehydrated with 30% sucrose for 24 h and embedded in paraffin or optimal cutting temperature compound (Sakura Finetek). 4-μm-thick coronal-oriented sections of the femur were prepared for hematoxylin and eosin staining. The femurs were fixed for 4 h with 4% paraformaldehyde at 4° C. and then decalcified at 4° C. using 0.5M EDTA (pH, 7.4) for 24 h with constant shaking. The samples were dehydrated in 20% sucrose and 2% polyvinylpyrrolidone (PVP) solution for 24 h and embedded in 8% gelatin (Sigma-Aldrich, G1890) in the presence of 20% sucrose and 2% PVP. Forty-μm-thick coronal-oriented sections of the femurs were obtained.

[1] = tested on: EP4 in the sensory nerves; test: PGE2-induced bone formation, trichrome and calcein double labeling; format: in vivo, mouse; settings: EP4Avil−/− mice; 3 mg per kg per day PGE2 for 3 consecutive days
Protocol: (§1) FIG. 9. […] DAPI stains nuclei blue. […] Calcein was injected 5 days and 1 day before sacrifice. Representative images of calcein double labeling of femoral trabecular bone with quantification of mineral apposition rate (MAR) and bone formation rate (BFR). Scale bar, 20 μm. […] (Student t-test, except j with ANOVA)
(§2) As EP4 expression is also known to express in osteoblasts, osteoblastic cell-specific knockout EP4 mice were generated by crossing […] mice with osteocalcin-cre (OC-cre) mice (FIG. 12A).
(§3) A double-labeling procedure was performed to measure dynamic bone formation. Briefly, 0.1% calcein (Sigma-Aldrich, C0875) was injected in phosphate-buffered saline at a concentration of 10mg per kg into the mice subcutaneously 7 days and 1 day before sacrifice. The double-labeling images of undecalcified bone slices were captured using a fluorescence microscope. Trabecular bone formation in four randomly selected visual fields was analyzed in the distal metaphyseal area of the femur.

[2] = molecular target: EP4 in the sensory nerves (Mus musculus, UniProt P32240); test: as above; format: in vivo; settings: wild-type mice; 3 mg per kg per day PGE2 for 3 consecutive days
Sequence of EP4 in the sensory nerves (Mus musculus, UniProt P32240) (P32240 whole entry): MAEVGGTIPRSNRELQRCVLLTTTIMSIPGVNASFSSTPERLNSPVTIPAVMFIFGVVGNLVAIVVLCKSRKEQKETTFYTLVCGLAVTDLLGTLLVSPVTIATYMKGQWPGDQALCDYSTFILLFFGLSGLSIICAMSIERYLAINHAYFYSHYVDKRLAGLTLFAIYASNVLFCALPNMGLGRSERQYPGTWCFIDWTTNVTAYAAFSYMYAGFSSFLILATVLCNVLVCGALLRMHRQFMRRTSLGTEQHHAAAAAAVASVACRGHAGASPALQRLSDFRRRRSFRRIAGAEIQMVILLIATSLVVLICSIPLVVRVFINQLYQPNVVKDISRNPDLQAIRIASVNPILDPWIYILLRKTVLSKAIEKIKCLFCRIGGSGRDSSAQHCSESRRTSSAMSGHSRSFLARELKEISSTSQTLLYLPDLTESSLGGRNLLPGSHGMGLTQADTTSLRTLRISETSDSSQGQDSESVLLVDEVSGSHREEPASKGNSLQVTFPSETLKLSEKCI
Protocol: as §1, §2, §3

15-PGDH [3] = molecular target: T1, 15-PGDH (Mus musculus, UniProt Q8VCC1); test: Liver regeneration after partial hepatectomy; format: in vivo; settings: TrkAAvil−/− mice treated with SW033291 relative to WT littermates
T1 sequence (Q8VCC1 1-269): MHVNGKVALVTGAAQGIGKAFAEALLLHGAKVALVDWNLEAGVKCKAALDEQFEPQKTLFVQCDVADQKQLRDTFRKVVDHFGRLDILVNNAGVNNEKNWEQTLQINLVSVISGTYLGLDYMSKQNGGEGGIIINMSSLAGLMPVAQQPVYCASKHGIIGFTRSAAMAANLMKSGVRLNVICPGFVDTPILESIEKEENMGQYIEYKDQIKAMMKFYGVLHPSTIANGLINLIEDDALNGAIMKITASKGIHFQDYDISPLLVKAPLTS
Text: FIG. 32. (A) Double-immunofluorescence images of liver tissue sections from TrkA^wt and TrkAAvil^−/− mice with vehicle or SW033291 treatment using antibodies against and Ki67 (red) and CGRP (green). DAPI stains nuclei blue. Percentages of the Ki67+cells are shown in the right panel. Scale bar, 100 μm.(B) BrdU staining images of liver tissue sections from TrkA^wt and TrkAAvil^−/− mice with vehicle or SW033291 treatment. Scale bar, […]. Percentages of the BrdU+cells are shown in the right panel. […] (ANOVA).
To further investigate whether PGE2 induces regeneration by sensory nerves of tissues other than bone, experiments were conducted that performed partial hepatectomy in TrkAAvil^−/− mice and their WT littermates treated with SW033291 or vehicle.
Partial hepatectomy was used for the liver regeneration model. 10- to 12-week-old […] male mice were anesthetized, as described above. A partial (two-thirds) hepatectomy was performed by resecting the median and left lateral hepatic lobes^54. The remnant livers were harvested after mice sacrifice. SW033291 was dissolved in a vehicle of 10% ethanol, 5% Cremophor EL, and 85% dextrose 5% in water.

15-PGDH [4] = molecular target: T1, 15-PGDH; test: Bone regeneration after femoral bone marrow ablation; format: in vivo
Text: FIG. 31. […] Scale bar: 1 mm. Selected areas for the measurements of bone volume (BV)/tissue volume (TV) were indicated with a yellow square. b Representative images of hematoxylin-eosin staining, double immunofluorescence analysis of CD31^+ Emcn^+ cells, and immunofluorescence analysis of Leptin receptor (LepR)^+ cells in the regeneration area. Scale bar, 100 μm. c Graphic illustration of this study. When bone density decreases by osteoclast bone resorption, PGE2 secretion by osteoblastic cells increases at bone remodeling sites. PGE2 activates EP4 receptor at sensory nerve to tune down sympathetic tones for osteoblast differentiation at the bone remodeling microenvironment. The sensory nerve controlling process is likely a temporal-spatial precision action. […] (ANOVA)
PGE2 has been reported recently to potentiate regeneration of multiple tissues (see, Zhang, Y. et al. Science 348, aaa2340, doi:10.1126/science.aaa2340 (2015)). To investigate whether PGE2 induces tissue regeneration through sensory nerves, experiments were conducted that assessed whether PGE2 induces bone regeneration. […] However, the regeneration of trabecular bone by SW033291 was obstructed in EP4Avil^−/− mice (FIG. 31A, B). […] Thus, PGE2 stimulates bone regeneration through sensory nerves.
The femurs were harvested from mice, and the soft tissue around the bone was removed, followed by fixation overnight using 4% paraformaldehyde. μCT analyses were performed by using a high-resolution μCT scanner (SkyScan, 1174). The voltage of the scanning procedure was 65 kv with a 153-μA current. The resolution was set to 8.7 μm per pixel. Reconstruction software (NRecon, v1.6, SkyScan), data analysis software (CTAn, v1.9, SkyScan), and 3D model visualization software (CTVol, v2.0, SkyScan) were used to analyze the diaphyseal cortical bone and the metaphyseal trabecular bone parameters of the femurs. Experiments were conducted that created cross-sectional images of the femur to perform 2D analyses of the cortical bone and 3D analyses of the trabecular bone. The region of interest (ROI) of the trabecular bone was drawn beginning from 5% of the femur length proximal to the distal metaphyseal growth plate and extending proximally for another 5% of the total femur length. The trabecular bone volume fraction (BV/TV), trabecular thickness (Tb. Th), trabecular number (Tb. N), and trabecular separation (Tb. Sp) were collected from the 3D analyses data and used to represent the trabecular bone parameters. The cortical bone ROI was drawn beginning from 20% of femur length proximal to distal metaphyseal growth plate and extending proximally to another 10% of the total femur length. […]

[5] = tested on: sensory nerves of iDTRAvil mice; settings: mouse, in vivo

For CCCCC[C@H](O)/C=C/[C@H]1[C@H](O)CC(=O)[C@@H]1C/C=C\CCCC(=O)O [PGE2, prostaglandin E2], the “activated (illuminated) DRG neurons, calcium imaging” value (DRG neurons) was “more illuminated DRG neurons”, the “phosphorylation of CREB in hypothalamus, Western blot time course” value (CREB signaling in VMH; 12-week-old mice after PGE2 injection) was “increased gradually” and the “PGE2-induced CREB phosphorylation in VMH, immunostaining” value (CREB signaling in VMH; EP4Avil−/− mice, 3 mg per kg PGE2, 6 h) was “abolished”. For the same compound, the “CREB phosphorylation in VMH, immunostaining” value (CREB signaling in VMH; WT (EP4wt) mice, 3 mg per kg PGE2, 6 h after injection) was “increased significantly”, the “time of peak phosphorylation of CREB in hypothalamus” value (CREB signaling in VMH; Western blot, after PGE2 injection) was 6 h and the “bone formation (trichrome, calcein double labeling: MAR, BFR)” value [1] was “abolished”. The “bone formation (trichrome, calcein double labeling: MAR, BFR)” value [2] was “significant bone formation”.
With CCCC[S+]([O-])c1sc2nc(-c3cccs3)cc(-c3ccccc3)c2c1N (stereo not shown) [SW033291] the “liver regeneration rate (BrdU and Ki67 staining)” value (15-PGDH [3]) was “decreased significantly”, the “type H vessels in the regeneration area” value (15-PGDH [4]; EP4Avil−/− mice with or without injection of SW033291) was “almost undetectable” and the “regeneration of trabecular bone” value (15-PGDH [4]; EP4Avil−/− mice, 10 mg per kg per day SW033291) was “obstructed”. For the same compound, the “type H vessel (CD31hi Endomucinhi) growth in the regeneration area” value (15-PGDH [4]; EP4wt mice treated with SW033291) was “significantly increased” and the “trabecular bone regeneration (μCT, HE staining)” value (15-PGDH [4]; EP4wt mice, 10 mg per kg per day SW033291, relative to vehicle-treated controls) was “boosted trabecular bone regeneration significantly”.
For O=C(O)CCC/C=C\C[C@H]1C(=O)C[C@@H](O)[C@@H]1/C=C/[C@@H](O)CCc1ccccc1 [EP1/3 agonist], the “phosphorylation of CREB (pCREB level) in VMH” value (CREB signaling in VMH; C57BL/6 mice, agonist 200 ug per kg, 6 hours, relative to vehicle-treated mice) was “did not increase”.
With diphtheria toxin [DTX] the “Sensory denervation (CGRP+ sensory nerves in femur)” value [5] was “effectively induced”, the amount of osteoid [5] was “significantly decreased” and the “bone formation (calcein double-labeling)” value [5] was “reduced”. For the same compound, the “bone loss (μCT, femur)” value [5] was “Significant bone loss”, the “bone mass in the vertebrae” value [5] was “decreased” and the “mineral apposition rate (calcein double-labeling)” value [5] was “reduced”. The “motor neural activity (pole tests and grip strength tests)” value [5] was “No motor neural activity was influenced”, the number of osteoblasts [5] was “significantly decreased” and the number of osteoclasts [5] was “unchanged”. The “sensory innervations in the vertebrae” value [5] was “decreased”, the “serum CTX level” value [5] was “unchanged” and the serum osteocalcin level [5] was “significantly decreased”.
